Laboratory results as given in publication PMC5775429, “LY2087101 and dFBr share transmembrane binding sites in the (α4)3(β2)2 Nicotinic Acetylcholine Receptor” (Scientific Reports, 2018).
Where “and” joins values, the source holds several entries; their conditions need not be identical. Equal values may be shown once.

Legend:
Test in all cases: Two-electrode voltage-clamp of ACh-induced currents in Xenopus oocytes
Format in all cases: cell-based
(α4T261D)3(β2)2 nAChR = target: T1, (α4T261D)3(β2)2 nAChR (Homo sapiens, UniProt P17787+P43681, T261D)
T1 construct: expressed in transfected cells; host or cells: Xenopus laevis oocytes injected with cRNA
Procedure: (§1) For amino acid substitutions within the α4 nAChR subunit, point mutations were introduced into pSP64ployA plasmid with cDNA encoding for human α4 nAChR subunit with mutagenic primer pairs using the Quick Change II Site-Directed Mutagenesis Kit (Agilent Technologies) then confirmed by DNA sequencing (GENEWIZ, LLC, South Plainfield, NJ). cRNA transcripts suitable for oocyte expression were prepared in vitro from linearized plasmids [α3 (BamH1), α4 (AseI), β2 (PvuII), β4 (XhoI)] using mMESSAGE mMACHINE high yield capped RNA transcription kits (Ambion) and purified on NucAway Spin column (Invitrogen). cRNA concentration was determined by spectroscopy (Concentration (ug/ul) = Abs260 * 40), aliquoted and stored at −80 °C until used.
(§2) Ovarian lobules were surgically harvested from oocytes-positive female Xenopus laevis (NASCO, Fort Atkinson, WI) according to an animal use protocol approved by the Texas A&M Health Sciences Center Institutional Animals Care and Use Committee. The Texas A&M Health Sciences Center Research Facility is registered as an animal research facility with the United States Department of Agriculture and is fully accredited by the American Association for Accreditation of Laboratory Animal Care (AAALAC). For oocytes defolliculation, ovarian lobes were treated with 3 mg/ml collagenase type 2 (Worthington Biomedical, Lakewood, NJ) in Ca + 2-free buffer (85 mM NaCl, 2.5 mM KCl, 1 mM MgCl2, 5 mM HEPES, pH 7.6). Collagenase treatment was allowed to proceed for 3 hours at room temperature with gentle shaking then oocytes were washed several times with buffer to remove collagenase then with ND96-gentamicine buffer. Healthy Stage V and VI oocytes were visually selected and maintained at 18 °C in modified ND96-gentamicine buffer (96 mM NaCl, 2 mM KCl, 1.8 mM CaCl2, 1 mM MgCl2, 5 mM HEPES, 50 µg/ml gentamicin, pH 7.6). Oocytes were injected with 50–100 ng of the desired nAChR subunits cRNA mix at ratios of 8α:1β or 1α:8β to express nAChRs with subunit stoichiometries of 3α:2β (low agonist sensitivity) or 2α:3β (high agonist sensitivity), respectively.
(§3) Oocytes were continuously perfused with recording buffer (100 mM NaCl, 2 mM KCl, 1 mM CaCl2, 0.8 mM MgCl2, 1 mM EGTA, 10 mM Hepes, pH 7.5) except during periods of drug applications.

(α4C259V)3(β2)2 nAChR = (α4C259V)3(β2)2 nAChR (Homo sapiens, UniProt P43681, C259V); conditions: 10 µM ACh + 1 µM PAM vs 10 µM ACh alone
Procedure: as §1, §2, §3

(α4G613L)3(β2)2 nAChR = (α4G613L)3(β2)2 nAChR (Homo sapiens, UniProt P43681, G613L)
Procedure: as §1, §2, §3

(α4M605I)3(β2)2 nAChR = target: T2, (α4M605I)3(β2)2 nAChR (Homo sapiens, UniProt P17787+P43681, M605I)
T2 construct: expressed in transfected cells; host or cells: Xenopus laevis oocytes injected with cRNA
Procedure: as §1, §2, §3

(α4F606Y)3(β2)2 nAChR = target: T3, (α4F606Y)3(β2)2 nAChR (Homo sapiens, UniProt P17787+P43681, F606Y)
T3 construct: expressed in transfected cells; host or cells: Xenopus laevis oocytes injected with cRNA
Procedure: as §1, §2, §3

(α4L311V)3(β2)2 nAChR = (α4L311V)3(β2)2 nAChR (Homo sapiens, UniProt P43681, L311V); conditions: 10 µM ACh + 1 µM PAM vs 10 µM ACh alone
Procedure: as §1, §2, §3

(α4F316L)3(β2)2 nAChR = (α4F316L)3(β2)2 nAChR (Homo sapiens, UniProt P43681, F316L)
Procedure: as §1, §2, §3

(α4M605V)3(β2)2 nAChR = target: T4, (α4M605V)3(β2)2 nAChR (Homo sapiens, UniProt P17787+P43681, M605V)
T4 construct: expressed in transfected cells; host or cells: Xenopus laevis oocytes injected with cRNA
Procedure: as §1, §2, §3

(α4E308V)3(β2)2 nAChR = (α4E308V)3(β2)2 nAChR (Homo sapiens, UniProt P43681, E308V)
Procedure: as §1, §2, §3

(α4L291V)3(β2)2 nAChR = target: T5, (α4L291V)3(β2)2 nAChR (Homo sapiens, UniProt P17787+P43681, L291V)
T5 construct: expressed in transfected cells; host or cells: Xenopus laevis oocytes injected with cRNA
Procedure: as §1, §2, §3

(α4V609A)3(β2)2 nAChR = target: T6, (α4V609A)3(β2)2 nAChR (Homo sapiens, UniProt P17787+P43681, V609A)
T6 construct: expressed in transfected cells; host or cells: Xenopus laevis oocytes injected with cRNA
Procedure: as §1, §2, §3

(α4L256F)3(β2)2 nAChR = (α4L256F)3(β2)2 nAChR (Homo sapiens, UniProt P43681, L256F)
Procedure: as §1, §2, §3

(α4I315A)3(β2)2 nAChR = target: T7, (α4I315A)3(β2)2 nAChR (Homo sapiens, UniProt P17787+P43681, I315A)
T7 construct: expressed in transfected cells; host or cells: Xenopus laevis oocytes injected with cRNA
Procedure: as §1, §2, §3

(α4I608L)3(β2)2 nAChR = target: T8, (α4I608L)3(β2)2 nAChR (Homo sapiens, UniProt P17787+P43681, I608L)
T8 construct: expressed in transfected cells; host or cells: Xenopus laevis oocytes injected with cRNA
Procedure: as §1, §2, §3

(α4C259F)3(β2)2 nAChR = (α4C259F)3(β2)2 nAChR (Homo sapiens, UniProt P43681, C259F); conditions: 10 µM ACh + 1 µM PAM vs 10 µM ACh alone
Procedure: as §1, §2, §3

α4β4 nAChR = target: T9, α4β4 nAChR (Homo sapiens, UniProt P30926+P43681); conditions: 1 μM PAM
T9 construct: expressed in transfected cells; host or cells: Xenopus laevis oocytes injected with cRNA
Procedure: (§4) Next, Xenopus oocytes were injected with RNA mixes of […], α3:β4, […], or α4:β4 at ratios of 8:1, 1:1, or 1:8 to express nAChRs with different subunit composition and with various α:β ratios.
as §2, §3

α4β2 nAChR = target: T10, α4β2 nAChR (Homo sapiens, UniProt P17787+P43681); conditions: 1 μM PAM
T10 construct: expressed in transfected cells; host or cells: Xenopus laevis oocytes injected with cRNA
Procedure: as §4, §2, §3

[1] = 10 µM ACh + 1 µM PAM vs 10 µM ACh alone
[2] = ACh concentration-response curve, normalized to 1 mM ACh alone
[3] = normalized to peak current by 10 µM ACh alone, curve fit
[4] = read-out: LY2087101 potentiation EC50

T8 sequence (P43681 29-627 I608L limits assumed): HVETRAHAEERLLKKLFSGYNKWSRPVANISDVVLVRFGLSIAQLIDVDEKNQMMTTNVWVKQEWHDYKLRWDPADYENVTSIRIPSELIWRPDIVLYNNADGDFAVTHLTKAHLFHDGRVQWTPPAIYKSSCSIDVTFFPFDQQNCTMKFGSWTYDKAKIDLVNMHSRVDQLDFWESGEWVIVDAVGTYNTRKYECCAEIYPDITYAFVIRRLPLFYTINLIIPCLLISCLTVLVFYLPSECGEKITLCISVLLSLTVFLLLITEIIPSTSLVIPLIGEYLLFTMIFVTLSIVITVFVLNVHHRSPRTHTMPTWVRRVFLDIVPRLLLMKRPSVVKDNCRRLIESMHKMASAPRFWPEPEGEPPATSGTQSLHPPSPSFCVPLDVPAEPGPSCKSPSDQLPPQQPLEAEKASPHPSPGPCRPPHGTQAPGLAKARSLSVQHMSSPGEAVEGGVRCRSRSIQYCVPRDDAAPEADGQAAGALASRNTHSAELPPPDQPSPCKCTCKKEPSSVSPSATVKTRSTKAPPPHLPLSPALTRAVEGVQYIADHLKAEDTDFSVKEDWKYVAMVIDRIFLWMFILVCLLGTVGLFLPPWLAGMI
T8 sequence (P17787 26-502): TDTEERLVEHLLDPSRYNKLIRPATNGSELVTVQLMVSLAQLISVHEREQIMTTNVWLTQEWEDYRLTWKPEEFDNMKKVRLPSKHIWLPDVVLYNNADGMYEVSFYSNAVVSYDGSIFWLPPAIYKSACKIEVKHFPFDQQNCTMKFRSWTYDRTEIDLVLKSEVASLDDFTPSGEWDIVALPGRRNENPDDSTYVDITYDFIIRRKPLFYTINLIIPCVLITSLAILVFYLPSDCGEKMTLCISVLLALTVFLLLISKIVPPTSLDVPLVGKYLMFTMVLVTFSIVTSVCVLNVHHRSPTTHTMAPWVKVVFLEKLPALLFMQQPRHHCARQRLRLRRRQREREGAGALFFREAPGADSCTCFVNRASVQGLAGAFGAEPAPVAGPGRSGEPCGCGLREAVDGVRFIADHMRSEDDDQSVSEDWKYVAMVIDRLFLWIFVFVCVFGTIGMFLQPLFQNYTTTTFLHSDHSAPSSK
Sequence of (α4E308V)3(β2)2 nAChR (P43681 29-627 E308V limits assumed): as the sequence (P43681 29-627 I608L limits assumed) above, with E280V, L580I counted along it
Sequence of (α4E308V)3(β2)2 nAChR (P17787 26-502 partner): as the sequence (P17787 26-502) above
T7 sequence (P43681 29-627 I315A limits assumed): as the sequence (P43681 29-627 I608L limits assumed) above, with I287A, L580I counted along it
T7 sequence (P17787 26-502): as the sequence (P17787 26-502) above
T1 sequence (P43681 29-627 T261D limits assumed): as the sequence (P43681 29-627 I608L limits assumed) above, with T233D, L580I counted along it
T1 sequence (P17787 26-502): as the sequence (P17787 26-502) above
T3 sequence (P43681 29-627 F606Y limits assumed): as the sequence (P43681 29-627 I608L limits assumed) above, with F578Y, L580I counted along it
T3 sequence (P17787 26-502): as the sequence (P17787 26-502) above
T5 sequence (P43681 29-627 L291V limits assumed): as the sequence (P43681 29-627 I608L limits assumed) above, with L263V, L580I counted along it
T5 sequence (P17787 26-502): as the sequence (P17787 26-502) above
T4 sequence (P43681 29-627 M605V limits assumed): as the sequence (P43681 29-627 I608L limits assumed) above, with M577V, L580I counted along it
T4 sequence (P17787 26-502): as the sequence (P17787 26-502) above
T2 sequence (P43681 29-627 M605I limits assumed): as the sequence (P43681 29-627 I608L limits assumed) above, with M577I, L580I counted along it
T2 sequence (P17787 26-502): as the sequence (P17787 26-502) above
T6 sequence (P43681 29-627 V609A limits assumed): as the sequence (P43681 29-627 I608L limits assumed) above, with L580I, V581A counted along it
T6 sequence (P17787 26-502): as the sequence (P17787 26-502) above
Sequence of (α4F316L)3(β2)2 nAChR (P43681 29-627 F316L limits assumed): as the sequence (P43681 29-627 I608L limits assumed) above, with F288L, L580I counted along it
Sequence of (α4F316L)3(β2)2 nAChR (P17787 26-502 partner): as the sequence (P17787 26-502) above
Sequence of (α4L256F)3(β2)2 nAChR (P43681 29-627 L256F limits assumed): as the sequence (P43681 29-627 I608L limits assumed) above, with L228F, L580I counted along it
Sequence of (α4L256F)3(β2)2 nAChR (P17787 26-502 partner): as the sequence (P17787 26-502) above
Sequence of (α4G613L)3(β2)2 nAChR (P43681 29-627 G613L limits assumed): as the sequence (P43681 29-627 I608L limits assumed) above, with L580I, G585L counted along it
Sequence of (α4G613L)3(β2)2 nAChR (P17787 26-502 partner): as the sequence (P17787 26-502) above
Sequence of (α4L311V)3(β2)2 nAChR (P43681 29-627 L311V limits assumed): as the sequence (P43681 29-627 I608L limits assumed) above, with L283V, L580I counted along it
Sequence of (α4L311V)3(β2)2 nAChR (P17787 26-502 partner): as the sequence (P17787 26-502) above
Sequence of (α4C259F)3(β2)2 nAChR (P43681 29-627 C259F limits assumed): as the sequence (P43681 29-627 I608L limits assumed) above, with C231F, L580I counted along it
Sequence of (α4C259F)3(β2)2 nAChR (P17787 26-502 partner): as the sequence (P17787 26-502) above
Sequence of (α4C259V)3(β2)2 nAChR (P43681 29-627 C259V limits assumed): as the sequence (P43681 29-627 I608L limits assumed) above, with C231V, L580I counted along it
Sequence of (α4C259V)3(β2)2 nAChR (P17787 26-502 partner): as the sequence (P17787 26-502) above
T9 sequence (P43681 29-627 limits assumed): as the sequence (P43681 29-627 I608L limits assumed) above, with L580I counted along it
T9 sequence (P30926 22-498): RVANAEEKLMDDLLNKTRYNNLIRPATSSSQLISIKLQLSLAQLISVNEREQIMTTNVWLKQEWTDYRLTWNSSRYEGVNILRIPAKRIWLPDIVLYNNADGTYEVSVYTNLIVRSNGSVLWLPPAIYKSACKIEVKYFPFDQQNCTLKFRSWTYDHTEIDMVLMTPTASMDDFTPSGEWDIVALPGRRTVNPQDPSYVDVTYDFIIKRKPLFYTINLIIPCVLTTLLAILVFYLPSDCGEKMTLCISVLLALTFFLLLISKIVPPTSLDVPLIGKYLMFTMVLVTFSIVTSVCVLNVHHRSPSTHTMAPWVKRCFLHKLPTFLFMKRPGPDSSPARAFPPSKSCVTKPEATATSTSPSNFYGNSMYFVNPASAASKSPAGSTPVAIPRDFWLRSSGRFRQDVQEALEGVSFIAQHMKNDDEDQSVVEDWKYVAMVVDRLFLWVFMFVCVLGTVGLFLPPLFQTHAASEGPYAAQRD
T10 sequence (P43681 29-627 limits assumed): as the sequence (P43681 29-627 I608L limits assumed) above, with L580I counted along it
T10 sequence (P17787 26-502): as the sequence (P17787 26-502) above

For Cc1nc(Nc2ccc(F)cc2)sc1C(=O)c1ccsc1 [LY2087101, [2-[(4-Fluorophenyl)amino]-4-methyl-5-thiazolyl]-3-thienylmethanone], which “R, potentiation ratio (PR)” value ((α4T261D)3(β2)2 nAChR; [1]) is on record?
The value was 1.6 ± 0.1.

What about the “ACh Imax in the presence of 1 µM LY2087101” value (from here on “ACh Imax in the presence”) ((α4T261D)3(β2)2 nAChR; [2]) of the same compound?
The value was 180 ± 23%.

What about the “LY2087101 potentiation Imax%” value ((α4T261D)3(β2)2 nAChR; [3]) of the same compound?
Its value is 215 ± 29%.

And the EC50 ((α4T261D)3(β2)2 nAChR; [4])?
Its EC50 is 2.4 ± 1.6 µM.

And the “R, potentiation ratio (PR)” value ((α4C259V)3(β2)2 nAChR)?
The value was 5.2 ± 0.6.

And the “R, potentiation ratio (PR)” value ((α4G613L)3(β2)2 nAChR; [1])?
The value was 1.09 ± 0.1.

And the “ACh Imax in the presence” value ((α4G613L)3(β2)2 nAChR; [2])?
The value was 112 ± 9%.

What about the “R, potentiation ratio (PR)” value ((α4M605I)3(β2)2 nAChR; [1]) of the same compound?
Its value is 4.5 ± 0.2.

What about the “LY2087101 potentiation Imax%” value ((α4M605I)3(β2)2 nAChR; [3]) of the same compound?
The value was 756 ± 27%.

And the EC50 ((α4M605I)3(β2)2 nAChR; [4])?
The EC50 was 0.8 ± 0.1 µM.

And the “R, potentiation ratio (PR)” value ((α4F606Y)3(β2)2 nAChR; [1])?
Its value is 2.3 ± 0.3.

And the “ACh Imax in the presence” value ((α4F606Y)3(β2)2 nAChR; [2])?
Its value is 144 ± 13% and 144 ± 013%.

And the “LY2087101 potentiation Imax%” value ((α4F606Y)3(β2)2 nAChR; [3])?
The value was 195 ± 13%.

And the EC50 ((α4F606Y)3(β2)2 nAChR; [4])?
The EC50 was 0.3 ± 0.2 µM.

What about the “R, potentiation ratio (PR)” value ((α4L311V)3(β2)2 nAChR) of the same compound?
The value was 15.6 ± 3.2.

What about the “R, potentiation ratio (PR)” value ((α4F316L)3(β2)2 nAChR; [1]) of the same compound?
Its value is 1.1 ± 0.1.

And the “ACh Imax in the presence” value ((α4F316L)3(β2)2 nAChR; [2])?
Its value is 122 ± 13%.

And the “R, potentiation ratio (PR)” value ((α4M605V)3(β2)2 nAChR; [1])?
The value was 3.8 ± 1.1.

And the “LY2087101 potentiation Imax%” value ((α4M605V)3(β2)2 nAChR; [3])?
The value was 856 ± 3%.

What about the EC50 ((α4M605V)3(β2)2 nAChR; [4]) of the same compound?
The EC50 was 2.7 ± 0.02 µM.

What about the “R, potentiation ratio (PR)” value ((α4E308V)3(β2)2 nAChR; [1]) of the same compound?
Its value is 1.7 ± 0.2.

What about the “LY2087101 potentiation Imax%” value ((α4E308V)3(β2)2 nAChR; normalized to 10 µM ACh alone, not from curve fitting, maximum seen at any concentration up to 10 µM LY2087101) of the same compound?
The value was 270 ± 30%.

What about the “R, potentiation ratio (PR)” value ((α4L291V)3(β2)2 nAChR; [1]) of the same compound?
The value was 3.7 ± 0.6.

What about the “LY2087101 potentiation Imax%” value ((α4L291V)3(β2)2 nAChR; [3]) of the same compound?
Its value is 719 ± 20%.

And the EC50 ((α4L291V)3(β2)2 nAChR; [4])?
The EC50 was 1.6 ± 0.1 µM.

And the “R, potentiation ratio (PR)” value ((α4V609A)3(β2)2 nAChR; [1])?
Its value is 5.7 ± 1.1.

And the EC50 ((α4V609A)3(β2)2 nAChR; [4])?
Its EC50 is 1 ± 0.3 µM.

And the “R, potentiation ratio (PR)” value ((α4L256F)3(β2)2 nAChR; [1])?
Its value is 1.0 ± 0.1.

What about the “ACh Imax in the presence” value ((α4L256F)3(β2)2 nAChR; [2]) of the same compound?
Its value is 104 ± 09%.

And the “R, potentiation ratio (PR)” value ((α4I315A)3(β2)2 nAChR; [1])?
The value was 2.5 ± 0.2.

And the “LY2087101 potentiation Imax%” value ((α4I315A)3(β2)2 nAChR; [3])?
Its value is 405 ± 5%.

What about the EC50 ((α4I315A)3(β2)2 nAChR; [4]) of the same compound?
The EC50 was 1.2 ± 0.5 µM.

And the “R, potentiation ratio (PR)” value ((α4I608L)3(β2)2 nAChR; [1])?
Its value is 4.4 ± 0.6.

And the “LY2087101 potentiation Imax%” value ((α4I608L)3(β2)2 nAChR; [3])?
Its value is 840 ± 31%.

What about the EC50 ((α4I608L)3(β2)2 nAChR; [4]) of the same compound?
Its EC50 is 1.2 ± 0.1 µM.

What about the “R, potentiation ratio (PR)” value ((α4C259F)3(β2)2 nAChR) of the same compound?
The value was 3.2 ± 0.4.

And the “potentiation of ACh responses” value (α4β4 nAChR)?
The value was “potentiated”.

What about the “potentiation of ACh responses” value (α4β2 nAChR) of the same compound?
The value was “potentiated”.
